Two compounds from patent US10640514B2, “Polymorph of DPPIV inhibitor maleate and preparation method therefor” (SHANGHAI INSTITUTE OF MATERIA MEDICA, CHINESE ACADEMY OF …, priority 2016, dated 2020) can be followed below.

Data set [1] is described as follows: Hygroscopicity analysis (DVS). The format is physicochemical. The settings on record: range of conventional storage humidity, 25° C. How it is done:
Dynamic vapor absorption (DVS) test/water absorption test rapidly measures the increase and loss of the moisture in the sample caused by flow carrier gas with set relative humidity (RH), wherein the sample is placed on a digital microbalance with high sensitivity and high stability at a self-suspension state, and then the adsorption/desorption of water vapor is measured by measuring the increase/decrease of mass of the material, thereby determining the hygroscopicity of the sample.
In the present invention, the test parameters of the DVS are as follows: Instrument type: SMS DVS Intrinsic; Non-hydrate: 0 to 95%-0% RH; Temperature: 25° C.; Hydrate: 40 to 95%-0% RH; Temperature: 25° C.

Data set [2] deals with DPP IV (Homo sapiens, UniProt P27487). In words: DPP IV inhibitory activity and selectivity in vitro. The format is biochemical.
Chain of DPP IV (Homo sapiens, UniProt P27487) (P27487 whole entry, species assumed): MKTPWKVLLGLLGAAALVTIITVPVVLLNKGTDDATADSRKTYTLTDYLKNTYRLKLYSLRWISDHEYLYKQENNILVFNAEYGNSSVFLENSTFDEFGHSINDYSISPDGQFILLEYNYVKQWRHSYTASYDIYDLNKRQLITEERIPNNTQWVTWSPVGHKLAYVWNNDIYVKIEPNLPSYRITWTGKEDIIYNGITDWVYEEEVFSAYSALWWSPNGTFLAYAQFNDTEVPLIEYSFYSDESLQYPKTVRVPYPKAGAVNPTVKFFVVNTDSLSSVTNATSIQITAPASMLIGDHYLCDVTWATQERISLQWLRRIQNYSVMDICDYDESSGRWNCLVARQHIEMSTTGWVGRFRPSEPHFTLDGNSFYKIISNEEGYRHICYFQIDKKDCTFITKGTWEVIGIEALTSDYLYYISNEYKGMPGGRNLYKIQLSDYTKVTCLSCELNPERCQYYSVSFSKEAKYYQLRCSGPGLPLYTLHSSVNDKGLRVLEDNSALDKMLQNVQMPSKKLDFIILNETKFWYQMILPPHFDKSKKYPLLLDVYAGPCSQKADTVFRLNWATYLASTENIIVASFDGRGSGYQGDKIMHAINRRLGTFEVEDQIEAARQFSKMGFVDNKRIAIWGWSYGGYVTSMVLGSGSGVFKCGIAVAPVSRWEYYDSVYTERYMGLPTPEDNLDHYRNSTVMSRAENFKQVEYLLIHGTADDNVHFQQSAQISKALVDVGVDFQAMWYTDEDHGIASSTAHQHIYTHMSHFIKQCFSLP
Data set [3] has as its target T1, DPP IV (Mus musculus, UniProt P28843).
T1 construct: from tissue; host or cells: normal mouse plasma
In words: Inhibition of DPP IV activity in normal mouse plasma. The format is in vivo.

Data set [4] has as its target T2, DPP IV (Rattus norvegicus, UniProt P14740).
T2 construct: from tissue; host or cells: normal rat plasma
Description: Inhibition of DPP IV activity in normal rat plasma. The format is in vivo.

A further data set relates to normal ICR mice. In words: Oral glucose tolerance in normal ICR mice. The format is in vivo.
The next data set concerns ob/ob mice. In words: Fasting blood glucose of ob/ob mice, chronic administration. The format is in vivo.
Another data set concerns db/db mice. Description: Fasting blood glucose of gene-deficient db/db mice, chronic administration. The format is in vivo.
The nature of another data set: Pharmacokinetics in rats. The format is in vivo.
A further data set can be described thus: Pharmacokinetics in dogs. The format is in vivo.
In the next data set the test system is ICR mice. In words: Acute toxicity test of ICR mice. The format is in vivo. Conditions: 300 mg/kg administration group.
Setting [5] is: versus sitagliptin and vildagliptin.

T2 sequence (P14740 37-767 limits assumed): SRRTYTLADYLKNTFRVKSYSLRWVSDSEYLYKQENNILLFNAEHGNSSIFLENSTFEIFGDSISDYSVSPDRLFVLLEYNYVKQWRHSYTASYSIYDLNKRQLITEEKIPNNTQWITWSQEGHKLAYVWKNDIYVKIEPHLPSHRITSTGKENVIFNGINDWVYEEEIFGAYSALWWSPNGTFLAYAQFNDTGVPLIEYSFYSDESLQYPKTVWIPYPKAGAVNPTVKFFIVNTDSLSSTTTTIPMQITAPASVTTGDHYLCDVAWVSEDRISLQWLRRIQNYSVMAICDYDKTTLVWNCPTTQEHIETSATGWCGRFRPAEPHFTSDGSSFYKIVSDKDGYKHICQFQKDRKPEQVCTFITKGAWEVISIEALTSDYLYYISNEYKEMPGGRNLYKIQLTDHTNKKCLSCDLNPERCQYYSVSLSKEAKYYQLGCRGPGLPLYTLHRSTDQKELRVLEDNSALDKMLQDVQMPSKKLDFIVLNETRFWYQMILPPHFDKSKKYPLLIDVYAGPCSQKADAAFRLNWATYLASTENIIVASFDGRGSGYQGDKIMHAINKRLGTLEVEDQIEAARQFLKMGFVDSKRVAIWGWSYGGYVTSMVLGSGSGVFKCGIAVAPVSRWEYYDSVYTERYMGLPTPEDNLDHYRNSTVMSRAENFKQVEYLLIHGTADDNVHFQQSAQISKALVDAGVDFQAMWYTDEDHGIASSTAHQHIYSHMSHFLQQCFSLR
T1 sequence (P28843 37-760 limits assumed): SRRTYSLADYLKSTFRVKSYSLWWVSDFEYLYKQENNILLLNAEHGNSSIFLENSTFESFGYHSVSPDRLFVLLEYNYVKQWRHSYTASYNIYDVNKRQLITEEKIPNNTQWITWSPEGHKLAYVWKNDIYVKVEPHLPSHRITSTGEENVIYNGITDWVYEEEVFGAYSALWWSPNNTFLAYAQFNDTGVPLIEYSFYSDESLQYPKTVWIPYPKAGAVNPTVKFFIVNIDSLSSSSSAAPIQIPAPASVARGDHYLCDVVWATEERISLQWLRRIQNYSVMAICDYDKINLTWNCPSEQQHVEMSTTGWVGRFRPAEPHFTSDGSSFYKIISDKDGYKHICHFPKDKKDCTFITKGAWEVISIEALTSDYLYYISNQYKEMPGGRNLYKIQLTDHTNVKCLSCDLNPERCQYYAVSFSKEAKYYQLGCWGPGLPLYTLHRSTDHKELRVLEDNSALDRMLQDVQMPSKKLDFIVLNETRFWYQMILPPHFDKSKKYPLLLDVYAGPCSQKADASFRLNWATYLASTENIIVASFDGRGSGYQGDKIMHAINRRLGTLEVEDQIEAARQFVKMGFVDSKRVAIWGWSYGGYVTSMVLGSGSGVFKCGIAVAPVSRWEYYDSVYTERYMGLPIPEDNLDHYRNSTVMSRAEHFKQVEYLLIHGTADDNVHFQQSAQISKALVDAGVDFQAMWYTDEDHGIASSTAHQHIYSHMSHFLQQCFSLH

Turning to `COC(=O)c1cc2nc(N3CCC[C@@H](N)C3)n(Cc3ccccc3C#N)c(=O)c2s1.O=C(O)/C=C\C(=O)O` [crystal form A, (R)-methyl-2-(3-aminopiperidin-1-yl)-3-(2-cyanobenzyl)-4-carbonyl-3,4-dihydrothiophene[3,2-d]pyrimidine-6-carboxylic acid maleate], in data set [1], the “hygroscopicity, variation range (DVS)” value is “less than 2.0%”.
On to `COC(=O)c1cc2nc(N3CCC[C@@H](N)C3)n(Cc3ccccc3C#N)c(=O)c2s1` [compound of formula I, (R)-methyl-2-(3-aminopiperidin-1-yl)-3-(2-cyanobenzyl)-4-carbonyl-3,4-dihydrothiophene[3,2-d]pyrimidine-6-carboxylic acid], for which the “mode of DPP IV inhibition” value on DPP IV [2] is listed as “selective, reversible competitive inhibitor”. At DPP IV [2] (in vitro), the “DPP IV inhibitory activity” value is reported as “nanomolar level”. At DPP IV [2] (setting [5]), the “DPP IV inhibitory activity in vitro compared with marketed drugs” value is “superior to the marketed drugs sitagliptin and vildagliptin”; the “DPP IV selectivity in vitro compared with marketed drugs” value was “superior to the marketed drugs sitagliptin and vildagliptin”. Further, on DPP IV [3], the “inhibition of DPP IV activity in plasma” value was “effective in inhibiting DPP IV activity” and the “plasma DPP IV inhibitory activity compared with alogliptin” value is recorded as “superior to the marketed drug alogliptin”. In addition, at DPP IV [4], the “inhibition of DPP IV activity in plasma” value is recorded as “effective in inhibiting DPP IV activity” and the “plasma DPP IV inhibitory activity compared with alogliptin” value is reported as “superior to the marketed drug alogliptin”. Also, in the data set on normal ICR mice, the “effect on oral glucose tolerance compared with alogliptin” value is given as “superior to that of alogliptin” and the “onset dose for increase of oral glucose tolerance” value is on record as 0.1 mg/kg. Also, the oral glucose tolerance result with normal ICR mice (dose-dependent manner) is listed as “increase oral glucose tolerance”. In the data set on ob/ob mice, the fasting blood glucose entry is reported as “effectively reduce fasting blood glucose” and the “fasting blood glucose reduction compared with alogliptin” value is recorded as “superior to positive control drug alogliptin”. Also, in the data set with db/db mice, the fasting blood glucose result is “reduce its fasting blood glucose” and the “fasting blood glucose reduction compared with alogliptin” value is “comparable to positive control drug alogliptin”. Besides, in the data set “Pharmacokinetics in rats”, the “AUC0-t compared with alogliptin” value is “superior to those of the marketed drug alogliptin” and the “half-life compared with alogliptin” value is recorded as “superior to those of the marketed drug alogliptin”. In addition, in “Pharmacokinetics in dogs”, the “AUC0-t compared with alogliptin” value was “superior to those of the marketed drug alogliptin” and the “half-life compared with alogliptin” value is “superior to those of the marketed drug alogliptin”. Further, the “animal death in acute toxicity test” value with ICR mice is “no animal dies”.
